Earlier results, collected in PMC8513935.

Key:
[1] = experimental, compiled by the authors from the literature (the ESI cites the sources)
[2] = derived by the authors as gas->solvent minus gas->water (a hypothetical dry solvent; the ESI), not a two-phase measurement
[3] = log P octanol/water from commercial databases, averaged (the ESI); settings: Octanol (wet), 25 C

Row | SMILES | log K of transfer, gas to solvent ([1]; 1,2-Dichloroethane, 25 C) | log K of transfer, gas to solvent ([1]; Butan-1-ol, 25 C) | log K of transfer, gas to solvent ([1]; Butan-2-ol, 25 C) | log K of transfer, gas to solvent ([1]; CCl4, 25 C) | log K of transfer, gas to solvent ([1]; Chlorobenzene, 25 C) | log K of transfer, gas to solvent ([1]; Chloroform, 25 C) | log K of transfer, gas to solvent ([1]; Hexadecane, 25 C) | log K of transfer, gas to solvent ([1]; Propan-1-ol, 25 C) | log K of transfer, gas to solvent ([1]; Propan-2-ol, 25 C) | log K of transfer, gas to solvent ([1]; Water, 25 C) | log K of transfer, water to solvent ([2]; 1,2-Dichloroethane, 25 C) | log K of transfer, water to solvent ([2]; Butan-1-ol, 25 C) | log K of transfer, water to solvent ([2]; Butan-2-ol, 25 C) | log K of transfer, water to solvent ([2]; CCl4, 25 C) | log K of transfer, water to solvent ([2]; Chlorobenzene, 25 C) | log K of transfer, water to solvent ([2]; Chloroform, 25 C) | log K of transfer, water to solvent ([2]; Hexadecane, 25 C) | log K of transfer, water to solvent [3] | log K of transfer, gas to solvent ([1]; Cyclohexane, 25 C) | log K of transfer, water to solvent ([2]; Cyclohexane, 25 C) | other results
1 | CCN(CC)CC | 3.21 log10 K | 3.56 log10 K | 3.53 log10 K | 3.54 log10 K | 3.35 log10 K | 4.22 log10 K | 3.04 log10 K | 3.5 log10 K | 3.31 log10 K | 2.36 log10 K | 0.85 log10 K | 1.2 log10 K | 1.17 log10 K | 1.18 log10 K | 0.99 log10 K | 1.86 log10 K | 0.68 log10 K | 1.45 log10 K |  |  | log K of transfer, gas to solvent ([1]; Butanone, 25 C): 3.05 log10 K; log K of transfer, gas to solvent ([1]; Cyclohexanone, 25 C): 3.01 log10 K; log K of transfer, gas to solvent ([1]; Diethyl Ether, 25 C): 3.26 log10 K; log K of transfer, gas to solvent ([1]; Ethanol, 25 C): 3.57 log10 K; log K of transfer, gas to solvent ([1]; Hexane, 25 C): 3.29 log10 K; log K of transfer, gas to solvent ([1]; Methanol, 25 C): 3.84 log10 K; log K of transfer, gas to solvent ([1]; Pentan-1-ol, 25 C): 3.64 log10 K; log K of transfer, gas to solvent ([1]; Propanone, 25 C): 2.97 log10 K; log K of transfer, gas to solvent ([1]; Tetrahydrofuran, 25 C): 3.37 log10 K; log K of transfer, water to solvent ([2]; Acetone, 25 C): 0.61 log10 K; log K of transfer, water to solvent ([2]; Butanone, 25 C): 0.69 log10 K; log K of transfer, water to solvent ([2]; Cyclohexanone, 25 C): 0.654 log10 K; log K of transfer, water to solvent ([2]; Diethyl Ether, 25 C): 0.9 log10 K; log K of transfer, water to solvent ([2]; Ethanol, 25 C): 1.21 log10 K; log K of transfer, water to solvent ([2]; Hexane, 25 C): 0.93 log10 K; log K of transfer, water to solvent ([2]; Methanol, 25 C): 1.48 log10 K; log K of transfer, water to solvent ([2]; Pentan-1-ol, 25 C): 1.28 log10 K; log K of transfer, water to solvent ([2]; Propan-1-ol, 25 C): 1.14 log10 K; log K of transfer, water to solvent ([2]; Propan-2-ol, 25 C): 0.95 log10 K; log K of transfer, water to solvent ([2]; Tetrahydrofuran, 25 C): 1.01 log10 K
2 | Cc1cccnc1 |  | 4.7 log10 K |  |  |  | 5.39 log10 K | 3.63 log10 K | 4.65 log10 K |  | 3.5 log10 K |  | 1.2 log10 K |  |  |  | 1.89 log10 K | 0.131 log10 K | 1.2 log10 K | 3.77 log10 K | 0.27 log10 K | log K of transfer, gas to solvent ([1]; 2-Methylpropan-2-ol, 25 C): 4.27 log10 K; log K of transfer, water to solvent ([2]; 2-Methylpropan-2-ol, 25 C): 0.77 log10 K; log K of transfer, water to solvent ([2]; Propan-1-ol, 25 C): 1.15 log10 K
3 | Cc1ccccn1 |  |  | 4.4 log10 K |  |  | 5.12 log10 K | 3.42 log10 K |  | 4.31 log10 K | 3.4 log10 K |  |  | 0.999 log10 K |  |  | 1.72 log10 K | 0.022 log10 K | 1.12 log10 K | 3.7 log10 K | 0.3 log10 K | log K of transfer, gas to solvent ([1]; 2-Methylpropan-1-ol, 25 C): 4.54 log10 K; log K of transfer, gas to solvent ([1]; 2-Methylpropan-2-ol, 25 C): 4.33 log10 K; log K of transfer, gas to solvent ([1]; Benzene, 25 C): 4.3 log10 K; log K of transfer, water to solvent ([2]; 2-Methylpropan-1-ol, 25 C): 1.14 log10 K; log K of transfer, water to solvent ([2]; 2-Methylpropan-2-ol, 25 C): 0.93 log10 K; log K of transfer, water to solvent ([2]; Benzene, 25 C): 0.9 log10 K; log K of transfer, water to solvent ([2]; Propan-2-ol, 25 C): 0.91 log10 K
4 | CCCCN | 3.29 log10 K |  |  | 3.15 log10 K | 3.06 log10 K | 3.86 log10 K | 2.62 log10 K |  |  | 3.11 log10 K | 0.18 log10 K |  |  | 0.04 log10 K | -0.05 log10 K | 0.75 log10 K | -0.492 log10 K | 0.97 log10 K | 2.62 log10 K | -0.488 log10 K | log K of transfer, gas to solvent ([1]; Benzene, 25 C): 3.17 log10 K; log K of transfer, gas to solvent ([1]; Di-n-butyl ether, 25 C): 2.68 log10 K; log K of transfer, gas to solvent ([1]; Octan-1-ol, 25 C): 3.61 log10 K; log K of transfer, gas to solvent ([1]; Toluene, 25 C): 3.25 log10 K; log K of transfer, water to solvent ([2]; Benzene, 25 C): 0.06 log10 K; log K of transfer, water to solvent ([2]; Di-n-butyl ether, 25 C): -0.43 log10 K; log K of transfer, water to solvent ([2]; Octan-1-ol(dry), 25 C): 0.5 log10 K; log K of transfer, water to solvent ([2]; Toluene, 25 C): 0.14 log10 K
5 | Cc1cccc(C)c1 | 4.38 log10 K |  |  | 4.18 log10 K |  | 4.29 log10 K | 3.84 log10 K |  |  | 0.61 log10 K | 3.77 log10 K |  |  | 3.57 log10 K |  | 3.68 log10 K | 3.23 log10 K | 3.2 log10 K | 3.95 log10 K | 3.34 log10 K | log K of transfer, gas to solvent ([1]; Octan-1-ol, 25 C): 3.79 log10 K; log K of transfer, water to solvent ([2]; Octan-1-ol(dry), 25 C): 3.18 log10 K
